Experimental findings from US5633381A, “(Z,Z), (Z,E) and (E,Z) isomers of substituted bis(phenylmethylene)cycloketones” (Berlex Laboratories, Inc., priority 1994, dated 1997) are described below.

Where a name gives a salt, the structure may show the parent alone. Bounds are passed on as bounds.

What all share (format): biochemical
Experiment [1] concerns the target Factor Xa (HFXa) (Homo sapiens, UniProt P00742). Kind of experiment: Assay of free Factor Xa: initial rate of cleavage of peptide p-nitroanilide S-2222. The following applies: free FXa, Tris-HCl pH 7.5, 164 μM S-2222, 3 nM HFXa, room temperature. As for the experimental part: (§1) There are a number of tests which illustrate the activity of the compounds of this invention. Due to the light sensitivity of the test Compounds, experiments were performed under minimally lighted conditions. The tests follow. ASSAY OF FREE FACTOR XA AND THROMBIN Activity of Factor Xa and thrombin (IIa) were determined as the initial rate of cleavage of peptide p-nitroanilide by the enzymes. […] Initial rate of the first 2 minutes was used for calculation of the enzyme activities.

The target in experiment [2] is thrombin (IIa) (Homo sapiens, UniProt P00734). Kind of experiment: Assay of free thrombin (IIa): initial rate of cleavage of peptide p-nitroanilide S2302. The following applies: Tris-HCl pH 7.5, 300 μM S2302, 20 nM thrombin, room temperature. As for the experimental part:
as §1

Experiment [3] concerns the target T1, human FXa (Homo sapiens, UniProt P00742).
T1 construct: 6 nM of human FXa; purchased Enzyme Research Lab; USA
Kind of experiment: In vitro plasma matrix effect on anti-FX activity (compounds diluted in 100% rat plasma). The following applies: compound in 100% rat plasma, 30 min incubation, S2222, pH 7.5, room temperature, read-out: Ki (Xa). As for the experimental part:
(§2) There are a number of tests which illustrate the activity of the compounds of this invention. Due to the light sensitivity of the test Compounds, experiments were performed under minimally lighted conditions. The tests follow.
IN VITRO PLASMA MATRIX EFFECT ON ANTI-FX ACTIVITY:
Compound stock solutions (10 mM in DMSO) were diluted in 100% rat plasma in a series of 1 to 3 dilutions in the following concentration ranges: (1) from 300 μM to 1.23 μM; (2) from 10 μM to 0.041 μM; (3) from 100 μM to 0.412 μM. After 30 minutes incubation (in dark) at room temperature, 20 μL of diluted compounds (in rat plasma) were added in duplicate to a 96-well flat-bottom microtiter plate (Dynatech Laboratories, USA). Thirty microliter of assay buffer containing 50 mM Tris HCl, pH 7.5, […], and 0.1% polyethylene glycol 6000 was added to each sample well followed by 100 ul of 6 nM of human FXa (in assay buffer) (Enzyme Research Lab. USA). The plate was mixed in a plate shaker for about 30 seconds. The reaction was started by the addition of 50 ul of 656 uM of chromogenic substrate S2222 in assay buffer (Pharmacia Hepar Inc. USA). FXa activity was measured at […] at room temperature for five minutes at 10 seconds interval in a THERMOmax microtiter plate reader (Molecular Devices). An internal standard was assayed in parallel as control. Initial rate as mOD/min was determined using OD readings in the first two minutes of the reaction. IC50 values were determined with a 4-parameter curve fit program provided by the Molecular Devices' software, SOFTmax 2.32. Ki values were then calculated with the following equation: Ki=IC50 /(1+[S]/Km). […]

Experiment [4] concerns citrated plasma clotting (prothrombin time). Kind of experiment: Coagulation assay: prothrombin time (PT). The following applies: human plasma, Rabbit Brain Thromboplastin, 37° C. As to the method:
as §2
(§3) Two coagulation assays, the activated partial thromboplastin time (APTT) and the prothrombin time (PT), were used to evaluate the compounds. An Electra 900C coagulometer with the software package was used. The Actin Reagent (APTT) or Rabbit Brain Thromboplastin (PT) is added to citrated plasma sample in equal volumes (100 μL each) and allowed to incubate for 5 min. at 37° C. […] (100 μL) is added and time to clot noted. Dilution series for compounds undergoing testing were made in human plasma prior to assay.

The test system of experiment [5] is citrated plasma clotting (activated partial thromboplastin time). Kind of experiment: Coagulation assay: activated partial thromboplastin time (APTT). The following applies: human plasma, Actin Reagent, 37° C. As for the experimental part:
as §2, §3

T1 sequence (P00742 235-488 limits assumed): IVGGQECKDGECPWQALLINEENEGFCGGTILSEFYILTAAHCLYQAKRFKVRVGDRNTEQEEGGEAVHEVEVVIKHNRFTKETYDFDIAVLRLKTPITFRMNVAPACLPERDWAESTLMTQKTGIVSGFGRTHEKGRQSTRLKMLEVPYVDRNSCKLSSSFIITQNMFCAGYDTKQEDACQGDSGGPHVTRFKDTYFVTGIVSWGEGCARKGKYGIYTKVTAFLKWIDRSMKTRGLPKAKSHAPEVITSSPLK
T1 sequence (P00742 41-179 limits assumed): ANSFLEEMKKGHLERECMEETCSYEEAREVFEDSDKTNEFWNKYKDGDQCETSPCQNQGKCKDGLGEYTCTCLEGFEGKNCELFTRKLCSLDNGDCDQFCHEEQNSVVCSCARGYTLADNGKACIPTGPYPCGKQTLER
Chain of Factor Xa (HFXa) (P00742 235-488 limits assumed): as the sequence (P00742 235-488 limits assumed) above
Chain of Factor Xa (HFXa) (P00742 41-179 limits assumed): as the sequence (P00742 41-179 limits assumed) above

For `N=C(N)c1ccc(/C=C2\CCCC/C(=C\c3ccc(C(N)=O)cc3)C2=O)cc1` [EX. 5 E,E, E,E-1-(4'-(amino(imino)methyl)phenyl)methylene-3-(4'-(aminocarbonyl)phenyl)methylene-2-oxocycloheptane, hydrochloride], the Ki in experiment [1] and in experiment [2] was above 5000 nM throughout.

For `N=C(N)c1ccc(/C=C2\CCCC/C(=C\c3ccc(C(=N)N)cc3)C2=O)cc1` [EX. 1 E,E, E,E-1,3-bis[(4'-(amino(imino)methyl)phenyl)methylene]-2-oxocycloheptane, hydrochloride], the Ki (usually the dissociation constant of the complex between target and ligand, obtained from inhibition or displacement) in experiment [3] worked out at 27000 ± 2600 nM; in experiment [1], 16500 ± 800 nM; in experiment [2], 6200 ± 530 nM. In experiment [4], the “PT: dose of compound required to produce a 2 fold increase in clot time” value was above 30 µg/mL. Moreover, the “APTT: dose of compound required to produce a 2 fold increase in clot time” value (“APTT … to produce a 2 fold increase in clot time” below) in experiment [5] turned out to be 17.5 µg/mL.

With `N=C(N)c1ccc(/C=C2/CCCCCC/C(=C/c3ccc(C(=N)N)cc3)C2=O)cc1` [EX. 16 Z,Z, Z,Z-1,3-bis[(4'-(amino(imino)methyl)phenyl)methylene]-2-oxocyclononane], the Ki came to 6 ± 2.8 nM in experiment [1] and 527 ± 52 nM in experiment [2].

In the case of `N=C(N)c1cccc(/C=C2/CCCC/C(=C/c3cccc(C(=N)N)c3)C2=O)c1` [EX. 13 Z,Z, Z,Z-1,3-bis[(3'-(amino(imino)methyl)phenyl)methylene]-2-oxocycloheptane, trifluoroacetate], the Ki in experiment [1] came out at 5.63 ± 1.97 nM; in experiment [2], 1360 ± 500 nM.

In the case of `CNC(=N)c1ccc(/C=C2\CCCC/C(=C\c3ccc(C(=N)N)cc3)C2=O)cc1` [EX. 7 E,E, E,E-1-(4'-(amino(imino)methyl)phenyl)methylene-3-(4'-(N'-methylamino-(imino)methyl)phenyl)methylene-2-oxocycloheptane, hydrochloride], the Ki in experiment [1] turned out to be 29000 nM; in experiment [2] it was 12900 nM.

In the case of `N=C(N)c1ccc(C=C2CCCCC(=Cc3ccc(C(N)=O)cc3)C2=O)cc1` [EX. 6 Z,E:E,Z, Z,E/E,Z-1-(4'-(amino(imino)methyl)phenyl)methylene-3-(4'-(aminocarbonyl)phenyl)-methylene-2-oxocycloheptane, trifluoroacetate], the values for the Ki in experiment [1] and in experiment [2] were 1850 ± 10 nM and 380 nM, respectively.

Consider `N=C(N)c1ccc(/C=C2/CCC/C(=C\c3ccc(C(=N)N)cc3)C2=O)cc1` [EX. 4 Z,E, Z,E-1,3-bis[(4'-(amino(imino)methyl)phenyl)methylene]-2-oxocyclohexane, trifluoroacetate], for which the figures for the Ki in experiment [1] and in experiment [2] were 422 ± 167 nM and 115 ± 71 nM, respectively.

Take `N=C(N)c1ccc(/C=C2/CCCC/C(=C/c3ccc(C(=N)N)cc3)C2=O)cc1` [EX. 2 Z,Z, Z,Z-1,3-bis[(4'-(amino(imino)methyl)phenyl)methylene]-2-oxocycloheptane, trifluoroacetate]: the Ki stood at 3.45 ± 0.07 nM in experiment [3], 1.12 ± 0.28 nM in experiment [1] and 525 nM in experiment [2]. Also, the “PT: dose of compound required to produce a 2 fold increase in clot time” value in experiment [4] was 0.3 µg/mL. In addition, the “APTT … to produce a 2 fold increase in clot time” value in experiment [5] was found to be 0.3 µg/mL.

On to `N=C(N)c1ccc(/C=C2/CCC/C(=C/c3ccc(C(=N)N)cc3)C2=O)cc1` [EX. 4 Z,Z, Z,Z-1,3-bis[(4'-(amino(imino)methyl)phenyl)methylene]-2-oxocyclohexane, trifluoroacetate], for which the Ki in experiment [1] is 28.9 ± 7 nM; in experiment [2] it was 1340 ± 370 nM.

Take `N=C(N)c1ccc(/C=C2/CCCC/C(=C\c3ccc(C(=N)N)cc3)C2=O)cc1` [EX. 2 Z,E, Z,E-1,3-bis[(4'-(amino(imino)methyl)phenyl)methylene]-2-oxocycloheptane, trifluoroacetate]: the Ki in experiment [3] was 210 ± 34 nM; in experiment [1], 201 ± 57 nM; in experiment [2], 132 ± 2 nM. Further, in experiment [4], the “PT: dose of compound required to produce a 2 fold increase in clot time” value amounted to 3.2 µg/mL. Besides, in experiment [5], the “APTT … to produce a 2 fold increase in clot time” value was determined as 1.6 µg/mL.

On to `N=C(N)c1ccc(/C=C2\CCC/C(=C\c3ccc(C(=N)N)cc3)C2=O)cc1` [EX. 3 E,E, E,E-1,3-bis[(4'-(amino(imino)methyl)phenyl)methylene]-2-oxocyclohexane, phosphate], for which the Ki in experiment [1] stood at 5650 ± 350 nM; in experiment [2], 2970 ± 480 nM.

As for `CN(C)C(=N)c1ccc(/C=C2/CCCC/C(=C/c3ccc(C(=N)N)cc3)C2=O)cc1` [EX. 10 Z,Z, Z,Z-1-(4'-(amino(imino)methyl)phenyl)methylene-3-(4'-(N',N'-dimethylamino (imino)methyl)phenyl)methylene-2-oxocycloheptane], the Ki in experiment [1] was 17.8 ± 2.6 nM; in experiment [2] it was 1390 ± 140 nM.

Consider `C/N=C(\N)c1ccc(/C=C2/CCCC/C(=C/c3ccc(C(=N)N)cc3)C2=O)cc1` [EX. 8 Z,Z, Z,Z-1-(4'-(amino(imino)methyl)phenyl)methylene-3-(4'-(N'-methylamino-(imino)methyl)phenyl)methylene-2-oxocycloheptane, trifluoroacetate], for which the Ki in experiment [1] amounted to 12.3 ± 1.8 nM; in experiment [2] it was 1580 ± 290 nM.

For `N=C(N)c1cccc(/C=C2\CCCC/C(=C\c3cccc(C(=N)N)c3)C2=O)c1` [EX. 12 E,E, E,E-1,3-bis[(3'-(amino(imino)methyl)phenyl)methylene]-2-oxocycloheptane, dihydrochloride], the Ki in experiment [1] was 1390 ± 210 nM; in experiment [2], 2140 ± 150 nM.

As for `N=C(N)c1ccc(/C=C2/CCCC/C(=C/c3ccc(C(N)=O)cc3)C2=O)cc1` [EX. 6 Z,Z, Z,Z-1-(4'-(amino(imino)methyl)phenyl)methylene-3-(4'-(aminocarbonyl)phenyl)-methylene-2-oxocycloheptane, trifluoroacetate], the inhibitory constant (Ki) in experiment [1] was 52.1 ± 2.5 nM; in experiment [2], 107 ± 2 nM.

Regarding `CNC(=N)c1ccc(C=C2CCCCC(=Cc3ccc(C(=N)N)cc3)C2=O)cc1` [EX. 8 Z,E:E,Z, Z,E/E,Z-1-(4'-(amino(imino)methyl)phenyl)methylene-3-(4'-(N'-methylamino (imino)methyl)phenyl)methylene-2-oxocycloheptane, trifluoroacetate], the Ki in experiment [1] is 504 ± 44 nM; in experiment [2], 363 ± 19 nM.

As for `N=C(N)c1ccc(/C=C2/CCCCCC/C(=C\c3ccc(C(=N)N)cc3)C2=O)cc1` [EX. 16 Z,E, Z,E-1,3-bis[(4'-(amino(imino)methyl)phenyl)methylene]-2-oxocyclononane], the Ki was 324 ± 48 nM in experiment [1] and 347 ± 35 nM in experiment [2].

As to `N=C(N)c1cccc(/C=C2/CCCC/C(=C\c3cccc(C(=N)N)c3)C2=O)c1` [EX. 13 Z,E, Z,E-1,3-bis[(3'-(amino(imino)methyl)phenyl)methylene]-2-oxocycloheptane, trifluoroacetate], the figures for the Ki in experiment [1] and in experiment [2] were 143 ± 38 nM and 1000 ± 30 nM, respectively.

On to `N=C(N)c1ccc(/C=C2/CCCCCCC/C(=C\c3ccc(C(=N)N)cc3)C2=O)cc1` [EX. 14 Z,E], for which the Ki is 509 ± 26 nM in experiment [1] and 146 ± 27 nM in experiment [2].

`N=C(N)c1ccc(/C=C2/CCCCC/C(=C/c3ccc(C(=N)N)cc3)C2=O)cc1` [EX. 15 Z,Z, Z,Z-1,3-bis[(4'-(amino(imino)methyl)phenyl)methylene]-2-oxocyclooctane]: the Ki in experiment [1] came to 13.7 ± 5.5 nM; in experiment [2] it was 619 ± 193 nM.

For the compound `N=C(N)c1ccc(/C=C2/CCCCCCC/C(=C/c3ccc(C(=N)N)cc3)C2=O)cc1` [EX. 14 Z,Z], the Ki came out at 111 ± 2 nM in experiment [1] and 741 ± 161 nM in experiment [2].

As for `N=C(N)c1ccc(/C=C2/CC(C(=O)O)C/C(=C/c3ccc(C(=N)N)cc3)C2=O)cc1` (stereo not shown) [EX. 11 Z,Z, Z,Z-3,5-bis[(4'-(amino(imino)methyl)phenyl)methylene]-4-oxocyclohexanoic acid, trifluoroacetate], the Ki in experiment [1] worked out at 29.1 ± 5.8 nM; in experiment [2], 120000 ± 7000 nM.

For the compound `N=C(N)c1ccc(/C=C2/CCCCC/C(=C\c3ccc(C(=N)N)cc3)C2=O)cc1` [EX. 15 Z,E, Z,E-1,3-bis[(4'-(amino(imino)methyl)phenyl)methylene]-2-oxocyclooctane], the values for the Ki in experiment [1] and in experiment [2] were 128 ± 25 nM and 198 ± 18 nM, respectively.
